Reference: patent publication US12233083B2, “Methods for the use of 5′-adenosine diphosphate ribose (ADPR)” (Invirsa, Inc., priority 2018, dated 2025)
“And” between values parts separate entries of the source, which are not always exact repeats. Equal values may be shown once. “Also recorded” adds a separate entry of the source. Read-outs that look alike come from different tables or passages of the source.

Experiments:
Vero cells = settings: African green monkey
HSV-1, strain MacIntyre = test: Plaque inhibition against HSV-1 strain MacIntyre in A549 cells; format: cell-based, herpes simplex virus type 1; settings: for Percent plaque area (ImageJ): A549 cells, duplicate wells
Method: Background: […] Again, acyclovir was included as a positive control. […] Acyclovir was tested at 0.002 and 0.05 mM. A control, with no treatment was also evaluated. […] After virus adsorption, media was removed and monolayers overlaid with semisolid agarose media containing each drug dilution. Monolayers were fixed and stained with crystal violet to visualize virus plaques. Pictures of the test plates were submitted to client for image analysis. Percent plaque area was calculated using ImageJ, version 1.52i.

HRSV [1] = test: Inhibition of HRSV replication in A549 cells (RSV with Renilla luciferase reporter); format: cell-based, human respiratory syncytial virus
[2] = target: purified recombinant GST-SIRT6 protein (Homo sapiens, UniProt Q8N6T7); settings: first study
Method: This first set of studies was performed using a Western blot method (Rahnasto-Rilla, 2016, Methods Mol. Biol., 1436:259-269) for the in vitro evaluation of Sirt6 deacetylation activity. […] Acetylation level was detected with anti-H3K9Ac antibody and normalized to total H3 histone (FIG. 5 (b)).

Interferon gamma (IFNγ) = test: Cotton rat RSV lung infection: lung IFNγ gene expression by PCR; format: in vivo; settings: 0.5% soln, 50 μL IN BID, day 5, vs PBS
Method: (§1) Methods: In view of the reduction in hRSV cellular infection in A549 and human airway epithelial cells, an in vivo experiment in the Cotton Rat was carried out using RSVA2 infection. In this study, adult male cotton rats (6-8 weeks of age) were divided into groups of 4 animals each. Animals were pre-bled for serum collection and ear tagged for identification. All animals were infected via intranasal instillation with 0.1 mL of RSV/A2 at 10^5 plaque-forming units (pfu) per animal.
(§2) At each treatment the animals received 50 μL. On day 5, the animals were sacrificed for viral lung titers and cytokine analysis. Interferon gamma (IFNγ) and transforming growth factor beta (TGFβ) gene expression were analyzed by PCR. The cytokine mRNA level was normalized relative to beta actin.

RSV/A2 = test: Cotton rat RSV lung infection: lung viral titer; format: in vivo; settings: 0.5% soln, 50 μL IN BID, day 5, vs PBS
Method: as §1, §2

Sirt6 = settings: 60 μM
Method: Sirt6 expression using western blots was evaluated in human corneal epithelial cells. Cell Culture: Human corneal epithelial cells (ATCC) were grown to just below confluency (80-90%) at 37° C., 5% CO2. They were washed twice with sterile phosphate buffered saline (PBS) and serum starved for 2 hours at 37° C. […] They were incubated for either 15, 30, 60 or 120 minutes with treatment. After each time point, treatment was aspirated and cells were washed twice with ice cold PBS. Cells were lysed in ice-cold cell lysis buffer and rotated end-over-end at 4° C. for 30 minutes. They were then centrifuged at 14,000g for 30 minutes at 4° C. […] Samples were stored frozen at -20° C. until performing the Western Blot. […] Proteins were electrophoresed at [MUT] for approximately 50 minutes then transferred to nitrocellulose. After blocking the blot for 1 hour at room temperature in 3% BSA in a standard mixture of tris-buffered saline and Polysorbate 20 (TBST), primary antibody (anti-Sirtuin 6) was added in blocking buffer and incubated overnight at 4° C. The blot was washed 3 times with TBST and HRP-linked secondary antibody added at 1:2000 for 40 minutes at room temperature. The blot was again washed 3 times with TBST and developed with ECL reagents for 1 minute. Images were obtained with ChemiDoclt Imager (UVP, Upland CA) with exposures ranging from 30 seconds to 5 minutes. […]

[3] = system: transforming growth factor beta (TGFβ); test: Cotton rat RSV lung infection: lung TGFβ gene expression by PCR; format: in vivo; settings: 0.5% soln, 50 μL IN BID, day 5, vs PBS
Method: as §1, §2

HRSV [4] = test: Reduction of HRSV cellular infection in A549 cells (RSV with GFP reporter, infected cells counted); format: cell-based, human respiratory syncytial virus
HRSV [5] = test: Reduction of HRSV infection in primary human airway epithelial (HAE) cultures (luciferase); format: cell-based, human respiratory syncytial virus; settings: 0.9 and 2.7 mg/ml, days 1 and 3 (24 and 72 hours) post inoculation

Sequence of purified recombinant GST-SIRT6 protein (Q8N6T7 whole entry): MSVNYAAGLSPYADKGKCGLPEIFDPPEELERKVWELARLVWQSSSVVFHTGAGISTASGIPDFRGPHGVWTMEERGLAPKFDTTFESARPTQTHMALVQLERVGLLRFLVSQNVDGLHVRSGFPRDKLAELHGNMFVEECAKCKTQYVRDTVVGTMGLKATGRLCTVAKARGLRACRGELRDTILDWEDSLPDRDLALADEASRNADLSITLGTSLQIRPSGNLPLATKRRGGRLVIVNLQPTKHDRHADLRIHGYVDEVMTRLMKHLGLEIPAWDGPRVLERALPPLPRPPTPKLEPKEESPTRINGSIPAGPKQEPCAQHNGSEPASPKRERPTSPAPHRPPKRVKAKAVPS

SMILES: Nc1nc2c(ncn2COCCO)c(=O)[nH]1 [Acyclovir]
- Toxicity Grade on Vero Cells (Vero cells; 0.1 μM): 0
- Toxicity Grade on Vero Cells (Vero cells; 2 μM): 0
- Toxicity Grade on Vero Cells (Vero cells; 50 μM): 0
- HSV-1 plaques observed in wells (HSV-1, strain MacIntyre; Acyclovir 0.002 mM): more smaller plaques, but not as many nor as large as the untreated wells
- HSV-1 plaques observed in wells (HSV-1, strain MacIntyre; acyclovir 0.05 mM): few small breakthrough plaques

SMILES: Nc1ncnc2c1ncn2[C@@H]1O[C@H](COP(=O)([O-])OP(=O)([O-])OC[C@H]2OC(O)[C@H](O)[C@@H]2O)[C@@H](O)[C@H]1O.[Li+].[Li+] (some centres unmarked) [Li2-ADPR, dilithium ADPR]
- inhibition of RSV replication (luminescence), difference (HRSV [1]; 2.7 mg/ml): five
- HRSV replication (luminescence) with increasing concentrations (HRSV [1]; days 1 and 2 after infection): significant dose-dependent inhibition
- Sirt6 deacetylation activity (inverse of H3K9Ac / total H3) ([2]; between 0.01 and 1 μM): increasing activation
- Sirt6 deacetylation activity (inverse of H3K9Ac / total H3) ([2]; concentrations of 10 μM and above): variable activity
- lung IFNγ mRNA (normalized to beta actin) (Interferon gamma (IFNγ)): increase
- lung RSV titers (RSV/A2): reduced
- Sirt6 protein concentration relative to baseline (No Treat lane) (Sirt6; 30 minutes): 155%
- Sirt6 protein concentration relative to baseline (No Treat lane) (Sirt6; two hours): returned to baseline
- Percent plaque area (ImageJ) (HSV-1, strain MacIntyre; 0.1 mM): 8.1% and 8.3%
- Percent plaque area (ImageJ) (HSV-1, strain MacIntyre; 0.4 mM): 14.3% and 7.3%
- Percent plaque area (ImageJ) (HSV-1, strain MacIntyre; 1.2 mM): 4.8% and 3.8%
- HSV-1 plaques observed in wells (HSV-1, strain MacIntyre; Li2-ADPR 0.1 mM): plaques similar in number and size as the untreated wells
- HSV-1 plaques observed in wells (HSV-1, strain MacIntyre; Li2-ADPR increased from 0.4 to 1.2 mM): the plaque number decreased and the plaque size decreased
- lung TGFβ mRNA (normalized to beta actin) [3]: significant decrease
- reduction of percentage of A549 cells infected with HRSV (HRSV [4]; 0.1 mg/ml): ~50%
- reduction of percentage of A549 cells infected with HRSV (HRSV [4]; 2.7 mg/ml): ~85%
- percentage of A549 cells infected with increasing concentrations (HRSV [4]; days 1 and 2 after inoculation): significant reduction
- RSV replication / percentage of cells infected in HAE cultures (luciferase activity) (HRSV [5]): significantly inhibiting; also recorded: significant reduction
